Source: patent publication US20250368666A1, “INDAZOLE COMPOUNDS” (TYRA BIOSCIENCES, INC., priority 2022, published 2025)

Assays:
FGFR3 = target: T1, FGFR3 (Homo sapiens, UniProt P22607); experiment: Kinase binding assay (kinase-tagged T7 phage, affinity beads, qPCR), Kd; conditions: read-out: FGFR3 (Kd nM)
T1 construct: made in house; host or cells: E. coli (BL21-derived), T7 phage
Method in brief: (§1)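 Kd obtained by Levenberg–Marquardt Hill-equation fit (slope −1) to qPCR-measured kinase retained on ligand-coated streptavidin beads.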

FGFR3 (V555M) = target: T2, FGFR3 (V555M) (Homo sapiens, UniProt P22607, V555M); experiment: as above; conditions: V555M mutant; read-out: FGFR3 (V555M) (Kd nM)
T2 construct: made in house; host or cells: E. coli (BL21-derived), T7 phage
Method in brief: as §1

FGFR1 = target: T3, FGFR1 (Homo sapiens, UniProt P11362); experiment: as above; conditions: read-out: FGFR1 (Kd nM)
T3 construct: made in house; host or cells: E. coli (BL21-derived), T7 phage
Method in brief: as §1

FGFR4 = target: T4, FGFR4 (Homo sapiens, UniProt P22455); experiment: as above; conditions: read-out: FGFR4 (Kd nM)
T4 construct: made in house; host or cells: E. coli (BL21-derived), T7 phage
Method in brief: as §1

FGFR2 = target: T5, FGFR2 (Homo sapiens, UniProt P21802); experiment: as above; conditions: read-out: FGFR2 (Kd nM)
T5 construct: made in house; host or cells: E. coli (BL21-derived), T7 phage
Method in brief: as §1

[1] = test system: HuH7 cell line (FGF19 amplification); experiment: Cancer cell line cell viability assay (Cell Titer-Glo), 120 hr; assay type: cell-based; conditions: Homo sapiens, Huh-7
Method in brief: (§2)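 RPMI1640/10% FBS for RT112/84 and MDA-MB-453; IMDM/20% FBS for KG-1; IMDM/10% FBS for HuH7. Cells plated overnight, dosed from 3 μM in 4-fold, 9-point series, incubated at 37° C, then lysed with Cell Titer-Glo 2.0; IC50 by sigmoidal fit.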

[2] = test system: KG-1 cell line (FGFR 1-fusion); experiment: Cancer cell line cell viability assay (Cell Titer-Glo), 72 hr; assay type: cell-based; conditions: Homo sapiens, KG-1, KG-1 cell line (FGFR1-fusion)
Method in brief: as §2

[3] = test system: KATO-III cell line (FGFR2 amplification); experiment: as above; assay type: cell-based; conditions: Homo sapiens, KATO III
Method in brief: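 Luminescent ATP read-out (Cell Titer-Glo 2.0) after compound exposure, normalised to DMSO-only wells. Dosing: 9 concentrations, 4-fold steps, top 3 μM, triplicates. IC50 derived by log(inhibitor) vs. response 4-parameter fit.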

[4] = test system: RT112/84 cell line (FGFR3-fusion); experiment: as above; assay type: cell-based; conditions: Homo sapiens, RT112/84, RT112/84 cell line (FGFR3-fusion)
Method in brief: as §2

T5 sequence (P21802 22-821): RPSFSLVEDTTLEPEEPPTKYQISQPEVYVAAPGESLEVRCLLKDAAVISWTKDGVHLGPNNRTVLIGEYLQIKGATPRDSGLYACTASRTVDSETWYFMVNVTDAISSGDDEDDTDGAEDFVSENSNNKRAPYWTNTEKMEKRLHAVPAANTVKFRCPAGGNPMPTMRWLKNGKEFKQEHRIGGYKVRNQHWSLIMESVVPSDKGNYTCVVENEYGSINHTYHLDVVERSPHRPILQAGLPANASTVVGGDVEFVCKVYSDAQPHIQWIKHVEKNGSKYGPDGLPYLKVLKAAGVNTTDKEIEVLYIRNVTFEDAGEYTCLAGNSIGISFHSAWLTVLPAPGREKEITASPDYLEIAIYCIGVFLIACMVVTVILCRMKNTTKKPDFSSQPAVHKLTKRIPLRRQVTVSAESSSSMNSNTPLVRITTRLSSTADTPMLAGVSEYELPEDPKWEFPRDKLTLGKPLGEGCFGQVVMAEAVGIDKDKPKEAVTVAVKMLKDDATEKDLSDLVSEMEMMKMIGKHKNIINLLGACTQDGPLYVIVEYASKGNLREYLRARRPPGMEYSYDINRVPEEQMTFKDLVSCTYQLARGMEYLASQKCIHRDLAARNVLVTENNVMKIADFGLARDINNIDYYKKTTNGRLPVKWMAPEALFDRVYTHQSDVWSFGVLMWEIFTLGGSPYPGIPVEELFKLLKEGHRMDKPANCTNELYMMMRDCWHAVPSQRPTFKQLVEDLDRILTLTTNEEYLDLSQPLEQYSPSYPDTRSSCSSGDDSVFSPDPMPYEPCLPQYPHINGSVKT
T3 sequence (P11362 22-822): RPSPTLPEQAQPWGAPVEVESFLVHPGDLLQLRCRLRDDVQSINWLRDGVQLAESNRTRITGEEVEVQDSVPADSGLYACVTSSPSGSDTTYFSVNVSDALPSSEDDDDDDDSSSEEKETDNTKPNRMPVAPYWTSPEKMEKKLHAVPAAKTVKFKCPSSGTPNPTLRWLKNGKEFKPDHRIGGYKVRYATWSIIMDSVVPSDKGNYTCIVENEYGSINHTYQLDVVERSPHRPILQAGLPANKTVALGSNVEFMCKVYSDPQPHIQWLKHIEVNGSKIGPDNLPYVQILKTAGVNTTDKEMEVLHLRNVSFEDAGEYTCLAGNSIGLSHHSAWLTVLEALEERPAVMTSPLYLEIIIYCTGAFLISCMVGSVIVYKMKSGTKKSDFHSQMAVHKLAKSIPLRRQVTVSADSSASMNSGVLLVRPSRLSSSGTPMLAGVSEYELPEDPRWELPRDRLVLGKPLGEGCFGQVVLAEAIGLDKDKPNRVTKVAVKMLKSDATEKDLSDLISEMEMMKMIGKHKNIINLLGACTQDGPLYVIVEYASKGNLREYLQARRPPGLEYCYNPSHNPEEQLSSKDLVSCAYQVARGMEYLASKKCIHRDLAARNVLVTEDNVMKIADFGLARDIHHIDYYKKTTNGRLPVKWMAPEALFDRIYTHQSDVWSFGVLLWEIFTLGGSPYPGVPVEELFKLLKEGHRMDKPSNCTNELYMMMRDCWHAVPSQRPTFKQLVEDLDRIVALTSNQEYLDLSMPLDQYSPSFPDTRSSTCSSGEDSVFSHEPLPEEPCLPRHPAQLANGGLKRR
T2 sequence (P22607 23-806 V555M): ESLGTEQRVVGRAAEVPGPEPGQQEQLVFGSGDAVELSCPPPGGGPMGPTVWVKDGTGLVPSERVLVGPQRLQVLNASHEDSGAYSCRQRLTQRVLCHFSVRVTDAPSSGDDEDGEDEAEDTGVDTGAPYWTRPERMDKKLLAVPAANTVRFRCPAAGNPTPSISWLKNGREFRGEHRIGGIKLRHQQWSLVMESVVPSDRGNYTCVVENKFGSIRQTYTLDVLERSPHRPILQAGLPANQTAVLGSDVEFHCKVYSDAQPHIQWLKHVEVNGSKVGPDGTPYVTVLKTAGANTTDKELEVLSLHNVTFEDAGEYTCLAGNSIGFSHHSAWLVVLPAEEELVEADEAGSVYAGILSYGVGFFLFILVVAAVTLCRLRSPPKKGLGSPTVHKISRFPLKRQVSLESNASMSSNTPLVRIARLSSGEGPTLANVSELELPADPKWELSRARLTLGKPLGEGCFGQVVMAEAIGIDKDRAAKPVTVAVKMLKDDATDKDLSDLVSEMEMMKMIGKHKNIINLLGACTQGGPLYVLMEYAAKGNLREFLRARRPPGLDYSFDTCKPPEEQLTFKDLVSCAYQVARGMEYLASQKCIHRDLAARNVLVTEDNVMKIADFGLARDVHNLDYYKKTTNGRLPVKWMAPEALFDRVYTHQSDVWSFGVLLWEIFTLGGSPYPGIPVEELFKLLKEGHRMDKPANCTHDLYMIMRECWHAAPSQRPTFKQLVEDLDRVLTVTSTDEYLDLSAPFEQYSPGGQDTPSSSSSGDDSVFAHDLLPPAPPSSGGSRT
T1 sequence (P22607 23-806): as the sequence (P22607 23-806 V555M) above, with M533V counted along it
T4 sequence (P22455 22-802): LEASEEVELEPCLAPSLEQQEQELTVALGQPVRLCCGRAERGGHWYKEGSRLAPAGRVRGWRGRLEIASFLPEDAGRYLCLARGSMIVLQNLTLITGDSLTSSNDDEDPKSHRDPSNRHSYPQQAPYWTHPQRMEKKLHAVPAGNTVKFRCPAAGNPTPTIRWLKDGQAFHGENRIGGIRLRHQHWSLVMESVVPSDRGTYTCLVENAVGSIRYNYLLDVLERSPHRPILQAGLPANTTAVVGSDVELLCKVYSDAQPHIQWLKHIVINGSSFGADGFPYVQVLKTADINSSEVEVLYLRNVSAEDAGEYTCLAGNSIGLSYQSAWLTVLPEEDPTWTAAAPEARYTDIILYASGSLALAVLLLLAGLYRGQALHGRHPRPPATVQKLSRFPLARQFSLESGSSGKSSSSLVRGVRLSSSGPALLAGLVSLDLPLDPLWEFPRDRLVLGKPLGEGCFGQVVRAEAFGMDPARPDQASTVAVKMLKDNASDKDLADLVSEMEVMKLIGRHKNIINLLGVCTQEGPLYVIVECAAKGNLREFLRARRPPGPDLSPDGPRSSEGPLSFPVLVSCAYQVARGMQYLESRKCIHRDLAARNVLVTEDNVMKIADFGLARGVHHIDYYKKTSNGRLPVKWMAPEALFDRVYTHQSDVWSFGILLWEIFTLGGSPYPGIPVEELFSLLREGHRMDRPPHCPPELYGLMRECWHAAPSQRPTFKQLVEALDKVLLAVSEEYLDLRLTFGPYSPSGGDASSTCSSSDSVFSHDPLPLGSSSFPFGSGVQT

Structure (SMILES)	Kd (FGFR3) [nM]	Kd (FGFR3 (V555M)) [nM]	Kd (FGFR1) [nM]	Kd (FGFR4) [nM]	Kd (FGFR2) [nM]	IC50 [1] [nM]	IC50 [2] [nM]	IC50 [3] [nM]	IC50 [4] [nM]
C[C@@H](Oc1ccc2[nH]nc(-c3cnc(N4CC(C)(NC(=O)CN(C)C)C4)c(C#N)c3)c2c1)c1c(Cl)cncc1Cl [Example 87, (R)-N-(1-(3-cyano-5-(5-(1-(3,5-dichloropyridin-4-yl)ethoxy)-1H-indazol-3-yl)pyridin-2-yl)-3-methylazetidin-3-yl)-2-(dimethylamino)acetamide]	1 to 50	1 to 50	1 to 50	1 to 50	50 to 300	0.1 to 50	200 to 1000	200 to 1000	50 to 200
COc1cc2[nH]nc(-c3cnc(N4CC(C)(NCP(C)(C)=O)C4)c(C#N)c3)c2cc1O[C@H](C)c1c(Cl)cncc1Cl [Example 329, 5-[5-[(1R)-1-(3,5-dichloro-4-pyridyl)ethoxy]-6-methoxy-1H-indazol-3-yl]-2-[3-(dimethyl-phosphoryl-methylamino)-3-methyl-azetidin-1-yl]pyridine-3-carbonitrile]	1 to 50	1 to 50	1 to 50	1 to 50	1 to 50	0.1 to 50	> 1000	200 to 1000	50 to 200
COc1cc2[nH]nc(-c3cnc(N4CC(C)(N(C)C)C4)nc3)c2cc1O[C@H](C)c1c(Cl)cncc1Cl [Example 51, (R)-1-(5-(5-(1-(3,5-dichloropyridin-4-yl)ethoxy)-6-methoxy-1H-indazol-3-yl)pyrimidin-2-yl)-N,N,3-trimethylazetidin-3-amine]	1 to 50	1 to 50	1 to 50	1 to 50	1 to 50	0.1 to 50	0.1 to 50	0.1 to 50	0.1 to 50
C[C@@H](Oc1cc2c(-c3cnc(N4CC(C)(N5CCCC5)C4)c(C#N)c3)n[nH]c2cc1F)c1c(Cl)cncc1Cl [Example 135, (R)-5-(5-(1-(3,5-dichloropyridin-4-yl)ethoxy)-6-fluoro-1H-indazol-3-yl)-2-(3-methyl-3-(pyrrolidin-1-yl)azetidin-1-yl)nicotinonitrile]	1 to 50	1 to 50	50 to 300	1 to 50	1 to 50	50 to 200	200 to 1000	200 to 1000	50 to 200
COc1cc2[nH]nc(-c3cnc(N4CC(C)(NCCO)C4)c(C#N)c3)c2cc1O[C@H](C)c1c(Cl)cncc1Cl [Example 47, 5-[5-[(1R)-1-(3,5-dichloro-4-pyridyl)ethoxy]-6-methoxy-1H-indazol-3-yl]-2-[3-(2-hydroxyethylamino)-3-methyl-azetidin-1-yl]pyridine-3-carbonitrile]	1 to 50	1 to 50	1 to 50	1 to 50	1 to 50	0.1 to 50	200 to 1000	50 to 200	50 to 200
COc1cc2[nH]nc(-c3cnc(N4CC(C)(NCC(C)C)C4)c(C#N)c3)c2cc1O[C@H](C)c1c(Cl)cncc1Cl [Example 139, (R)-5-(5-(1-(3,5-dichloropyridin-4-yl)ethoxy)-6-methoxy-1H-indazol-3-yl)-2-(3-(isobutylamino)-3-methylazetidin-1-yl)nicotinonitrile]	1 to 50	1 to 50	1 to 50	1 to 50	1 to 50	0.1 to 50	50 to 200	50 to 200	0.1 to 50
C[C@@H](Oc1ccc2[nH]nc(-c3cnc(N4CC(C)(NCC(F)F)C4)c(C#N)c3)c2c1)c1c(Cl)cncc1Cl [Example 22, (R)-5-(5-(1-(3,5-dichloropyridin-4-yl)ethoxy)-1H-indazol-3-yl)-2-(3-((2,2-difluoroethyl)amino)-3-methylazetidin-1-yl)nicotinonitrile]	1 to 50	1 to 50	50 to 300	1 to 50	50 to 300	0.1 to 50	200 to 1000	200 to 1000	50 to 200
CC(C)NCC1(C)CN(c2ncc(-c3n[nH]c4ccc(O[C@H](C)c5c(Cl)cncc5Cl)cc34)cc2C#N)C1 [Example 133, 5-[5-[(1R)-1-(3,5-dichloro-4-pyridyl)ethoxy]-1H-indazol-3-yl]-2-[3-[(isopropylamino)meth-yl]-3-methyl-azetidin-1-yl]pyridine-3-carbonitrile]	1 to 50	1 to 50	1 to 50	1 to 50	50 to 300	200 to 1000	50 to 200	200 to 1000	50 to 200
C[C@@H](Oc1ccc2[nH]nc(-c3cnc(N4CC(C)(N5CCP(C)(=O)CC5)C4)c(C#N)c3)c2c1)c1c(Cl)cncc1Cl [Example 328, (R)-5-(5-(1-(3,5-dichloropyridin-4-yl)ethoxy)-1H-indazol-3-yl)-2-(3-methyl-3-(4-methyl-4-oxido-1,4-azaphosphinan-1-yl)azetidin-1-yl)nicotinonitrile]	1 to 50	1 to 50	1 to 50	1 to 50	1 to 50	50 to 200	> 1000	200 to 1000	50 to 200
COCCNC1(C)CN(c2ncc(-c3n[nH]c4cc(OC)c(O[C@H](C)c5c(Cl)cncc5Cl)cc34)cc2C#N)C1 [Example 37, 5-[5-[(1R)-1-(3,5-dichloro-4-pyridyl)ethoxy]-6-methoxy-1H-indazol-3-yl]-2-[3-(2-methoxyethylamino)-3-methyl-azetidin-1-yl]pyridine-3-carbonitrile]	1 to 50	1 to 50	1 to 50	1 to 50	1 to 50	0.1 to 50	50 to 200	50 to 200	0.1 to 50
C[C@@H](Oc1ccc2[nH]nc(-c3cnc(N4CC(C)(N5CC(C)(O)C5)C4)c(C#N)c3)c2c1)c1c(Cl)cncc1Cl [Example 100, (R)-5-(5-(1-(3,5-dichloropyridin-4-yl)ethoxy)-1H-indazol-3-yl)-2-(3-hydroxy-3,3′-dimethyl-[1,3′-biazetidin]-1′-yl)nicotinonitrile]	1 to 50	1 to 50	1 to 50	1 to 50	1 to 50	0.1 to 50	50 to 200	50 to 200	0.1 to 50
C[C@@H](Oc1ccc2[nH]nc(-c3cnc(N4CC(C)(N5CCOCC5)C4)c(C#N)c3)c2c1)c1c(Cl)cncc1Cl [Example 34, 5-[5-[(1R)-1-(3,5-dichloro-4-pyridyl)ethoxy]-1H-indazol-3-yl]-2-(3-methyl-3-morpholino-azetidin-1-yl)pyridine-3-carbonitrile]	1 to 50	1 to 50	50 to 300	1 to 50	50 to 300	0.1 to 50	200 to 1000	200 to 1000	50 to 200
CCCNC1(C)CN(c2ncc(-c3n[nH]c4cc(OC)c(O[C@H](C)c5c(Cl)cncc5Cl)cc34)cc2C#N)C1 [Example 146, 5-[5-[(1R)-1-(3,5-dichloro-4-pyridyl)ethoxy]-6-methoxy-1H-indazol-3-yl]-2-[3-methyl-3-(propylamino)azetidin-1-yl]pyridine-3-carbonitrile]	1 to 50	1 to 50	1 to 50	1 to 50	1 to 50	0.1 to 50	50 to 200	50 to 200	0.1 to 50
COc1cc2[nH]nc(-c3cnc(N4CC(N)(C5CCC5)C4)c(C#N)c3)c2cc1O[C@H](C)c1c(Cl)cncc1Cl [Example 356, (R)-2-(3-amino-3-cyclobutylazetidin-1-yl)-5-(5-(1-(3,5-dichloropyridin-4-yl)ethoxy)-6-methoxy-1H-indazol-3-yl)nicotinonitrile]	1 to 50		1 to 50	1 to 50	1 to 50	0.1 to 50	50 to 200	200 to 1000	0.1 to 50
COc1cc2[nH]nc(-c3cnc(N4CC(N)(CC(C)(C)O)C4)c(C#N)c3)c2cc1O[C@H](C)c1c(Cl)cncc1Cl [Example 361, (R)-2-(3-amino-3-(2-hydroxy-2-methylpropyl)azetidin-1-yl)-5-(5-(1-(3,5-dichloropyridin-4-yl)ethoxy)-6-methoxy-1H-indazol-3-yl)nicotinonitrile]	1 to 50		1 to 50	1 to 50	1 to 50	50 to 200	200 to 1000	50 to 200	50 to 200
